Laboratory results as given in patent publication US4396613A, “23-Ester derivatives of DMT and method of using same” (Eli Lilly and Company, priority 1981, dated 1983).
≈ marks a conversion by molar mass, not a printed value.

Experiments:
Format in all cases: cell-based
[1] = system: Staphylococcus epidermidis EPI2; experiment: standard agar-dilution assay (MIC); conditions: unit assumed
Procedure: (§1) The MIC's in Table II were determined by standard agar-dilution assays. The MIC's in Table III were obtained using a conventional broth-dilution microtiter test.

[2] = system: Haemophilus influenzae R252; experiment: standard agar-dilution assay (MIC); conditions: Haemophilus influenzae R252, ampicillin-resistant strain, unit assumed
Procedure: as §1

[3] = system: Staphylococcus aureus X1.1; experiment: standard agar-dilution assay (MIC); conditions: unit assumed
Procedure: as §1

[4] = system: Streptococcus pyogenes C203; experiment: standard agar-dilution assay (MIC); conditions: unit assumed
Procedure: as §1

[5] = system: Staphylococcus epidermidis EPI1; experiment: standard agar-dilution assay (MIC); conditions: unit assumed
Procedure: as §1

[6] = system: Streptococcus Group 9960; experiment: standard agar-dilution assay (MIC); conditions: unit assumed
Procedure: as §1

[7] = system: Haemophilus influenzae Holt; experiment: standard agar-dilution assay (MIC); conditions: ampicillin-sensitive strain, unit assumed
Procedure: as §1

[8] = system: Staphylococcus aureus S13E; experiment: standard agar-dilution assay (MIC); conditions: unit assumed
Procedure: as §1

[9] = system: Streptococcus Group D X66; experiment: standard agar-dilution assay (MIC); conditions: unit assumed
Procedure: as §1

[10] = system: Staphylococcus aureus X400; experiment: standard agar-dilution assay (MIC); conditions: Staphylococcus aureus X400, methicillin-resistant strain, unit assumed
Procedure: as §1
^c Methicillinresistant-strain

[11] = system: Pasteurella multocida 60A; experiment: conventional broth-dilution microtiter test (MIC); conditions: avian isolate, unit assumed
Procedure: as §1

[12] = system: Mycoplasma gallisepticum; experiment: conventional broth-dilution microtiter test (MIC); conditions: unit assumed
Procedure: as §1

[13] = system: Pasteurella multocida 17E; experiment: conventional broth-dilution microtiter test (MIC); conditions: bovine isolate, unit assumed
Procedure: as §1

[14] = system: Mycoplasma synoviae; experiment: conventional broth-dilution microtiter test (MIC); conditions: unit assumed
Procedure: as §1

[15] = system: Streptococcus sp. 80; experiment: conventional broth-dilution microtiter test (MIC); conditions: unit assumed
Procedure: as §1

[16] = system: Staphylococcus aureus; experiment: conventional broth-dilution microtiter test (MIC); conditions: unit assumed
Procedure: as §1

[17] = system: Mycoplasma hyorhinis; experiment: conventional broth-dilution microtiter test (MIC); conditions: unit assumed
Procedure: as §1

[18] = system: Streptococcus pneumoniae Park I; conditions: agar dilution, unit assumed
Procedure: as §1

[19] = system: Staphylococcus aureus V41; experiment: standard agar-dilution assay (MIC); conditions: Staphylococcus aureus V41, penicillin-resistant strain, unit assumed
Procedure: as §1
^b Penicillinresistant strain

Compound | MIC [1] | MIC [2] | MIC [3] | MIC [4] | MIC [5] | MIC [6] | MIC [7] | MIC [8] | MIC [9] | MIC [10] | MIC [11] | MIC [12] | MIC [13] | MIC [14] | MIC [15] | MIC [16] | MIC [17] | MIC [18] | MIC [19]
CCC1OC(=O)CC(O)C(C)C(OC2OC(C)C(OC3CC(C)(O)C(O)C(C)O3)C(N(C)C)C2OC(C)=O)C(CC=O)CC(C)C(=O)C=CC(C)=CC1COC(=O)C12CC3CC(CC(C3)C1)C2 (stereo not drawn) [Compound 23] | 4 mg/L (≈ 4.23 µM) | > 128 mg/L | 2 mg/L (≈ 2.11 µM) | 2 mg/L (≈ 2.11 µM) | 2 mg/L (≈ 2.11 µM) | 4 mg/L (≈ 4.23 µM) | > 128 mg/L | 2 mg/L (≈ 2.11 µM) | 4 mg/L (≈ 4.23 µM) | 2 mg/L (≈ 2.11 µM) | > 50 mg/L | 6.25 mg/L (≈ 6.61 µM) | 50 mg/L (≈ 52.8 µM) | 1.56 mg/L (≈ 1.65 µM) | < 0.78 mg/L | 6.25 mg/L (≈ 6.61 µM) | 25 mg/L (≈ 26.4 µM) | 1 mg/L (≈ 1.06 µM) | 2 mg/L (≈ 2.11 µM)
CCC1OC(=O)CC(O)C(C)C(OC2OC(C)C(OC3CC(C)(O)C(O)C(C)O3)C(N(C)C)C2OC(C)=O)C(CC=O)CC(C)C(=O)C=CC(C)=CC1COC(=O)Cc1cc(OC)ccc1OC (stereo not drawn) [Compound 20] | 0.5 mg/L (≈ 0.52 µM) | 16 mg/L (≈ 16.6 µM) | 0.5 mg/L (≈ 0.52 µM) | 0.25 mg/L (≈ 0.26 µM) | 0.5 mg/L (≈ 0.52 µM) | 2 mg/L (≈ 2.08 µM) | 32 mg/L (≈ 33.3 µM) | 0.5 mg/L (≈ 0.52 µM) | 0.5 mg/L (≈ 0.52 µM) | 0.5 mg/L (≈ 0.52 µM) | 25 mg/L (≈ 26 µM) | 0.195 mg/L (≈ 0.203 µM) | 12.5 mg/L (≈ 13 µM) | 0.39 mg/L (≈ 0.405 µM) | 0.195 mg/L (≈ 0.203 µM) | 0.78 mg/L (≈ 0.811 µM) | 1.56 mg/L (≈ 1.62 µM) | 0.06 mg/L (≈ 0.0624 µM) | 0.5 mg/L (≈ 0.52 µM)
CCC1OC(=O)CC(O)C(C)C(OC2OC(C)C(OC3CC(C)(O)C(O)C(C)O3)C(N(C)C)C2OC(C)=O)C(CC=O)CC(C)C(=O)C=CC(C)=CC1COC(=O)CCCCc1ccccc1 (stereo not drawn) [Compound 18] | 2 mg/L (≈ 2.12 µM) | > 128 mg/L | 1 mg/L (≈ 1.06 µM) | 0.5 mg/L (≈ 0.53 µM) | 1 mg/L (≈ 1.06 µM) | 1 mg/L (≈ 1.06 µM) | > 128 mg/L | 1 mg/L (≈ 1.06 µM) | 2 mg/L (≈ 2.12 µM) | 2 mg/L (≈ 2.12 µM) | > 50 mg/L | < 0.05 mg/L | 50 mg/L (≈ 53 µM) | 6.25 mg/L (≈ 6.62 µM) | 0.78 mg/L (≈ 0.826 µM) | 1.56 mg/L (≈ 1.65 µM) | 12.5 mg/L (≈ 13.2 µM) | 0.125 mg/L (≈ 0.132 µM) | 2 mg/L (≈ 2.12 µM)
CCC1OC(=O)CC(O)C(C)C(OC2OC(C)C(OC3CC(C)(O)C(O)C(C)O3)C(N(C)C)C2OC(C)=O)C(CC=O)CC(C)C(=O)C=CC(C)=CC1COC(=O)C=Cc1ccccc1 (stereo not drawn) [Compound 11] | 4 mg/L (≈ 4.38 µM) | 128 mg/L (≈ 140 µM) | 1 mg/L (≈ 1.09 µM) | 1 mg/L (≈ 1.09 µM) | 1 mg/L (≈ 1.09 µM) | 2 mg/L (≈ 2.19 µM) | 128 mg/L (≈ 140 µM) | 1 mg/L (≈ 1.09 µM) | 2 mg/L (≈ 2.19 µM) | 2 mg/L (≈ 2.19 µM) | > 50 mg/L | 0.39 mg/L (≈ 0.427 µM) | 12.5 mg/L (≈ 13.7 µM) | 3.12 mg/L (≈ 3.41 µM) | 0.78 mg/L (≈ 0.853 µM) | 1.56 mg/L (≈ 1.71 µM) | 6.25 mg/L (≈ 6.84 µM) | 0.25 mg/L (≈ 0.273 µM) | 0.5 mg/L (≈ 0.547 µM)
CCC1OC(=O)CC(O)C(C)C(OC2OC(C)C(OC3CC(C)(O)C(O)C(C)O3)C(N(C)C)C2O)C(CC=O)CC(C)C(=O)C=CC(C)=CC1COC(=O)N1CCC(O)CC1 (stereo not drawn) [Compound 28] | 2 mg/L (≈ 2.3 µM) | 16 mg/L (≈ 18.4 µM) | 1 mg/L (≈ 1.15 µM) | 0.25 mg/L (≈ 0.288 µM) | 0.5 mg/L (≈ 0.575 µM) | 1 mg/L (≈ 1.15 µM) | 8 mg/L (≈ 9.21 µM) | 2 mg/L (≈ 2.3 µM) | 1 mg/L (≈ 1.15 µM) | 2 mg/L (≈ 2.3 µM) | 25 mg/L (≈ 28.8 µM) | 0.39 mg/L (≈ 0.449 µM) | 12.5 mg/L (≈ 14.4 µM) | 0.78 mg/L (≈ 0.898 µM) | 0.39 mg/L (≈ 0.449 µM) | 1.56 mg/L (≈ 1.8 µM) | 0.78 mg/L (≈ 0.898 µM) | 0.125 mg/L (≈ 0.144 µM) | 1 mg/L (≈ 1.15 µM)
CCC1OC(=O)CC(O)C(C)C(OC2OC(C)C(OC3CC(C)(O)C(O)C(C)O3)C(N(C)C)C2O)C(CC=O)CC(C)C(=O)C=CC(C)=CC1COC(=O)Cc1ccccc1 (stereo not drawn) [Compound 10, 23-O-Phenylacetyl-DMT] | 0.5 mg/L (≈ 0.581 µM) | 2 mg/L (≈ 2.33 µM) | 0.25 mg/L (≈ 0.291 µM) | 0.125 mg/L (≈ 0.145 µM) | 0.5 mg/L (≈ 0.581 µM) | 0.25 mg/L (≈ 0.291 µM) | 2 mg/L (≈ 2.33 µM) | 0.25 mg/L (≈ 0.291 µM) | 0.5 mg/L (≈ 0.581 µM) | 0.5 mg/L (≈ 0.581 µM) | 3.12 mg/L (≈ 3.63 µM) | ≤ 0.048 mg/L | 1.56 mg/L (≈ 1.81 µM) | ≤ 0.048 mg/L | 0.097 mg/L (≈ 0.113 µM) | 0.78 mg/L (≈ 0.907 µM) | 1.56 mg/L (≈ 1.81 µM) | 0.03 mg/L (≈ 0.0349 µM) | 0.5 mg/L (≈ 0.581 µM)
